Consider 30 molecules from PubChem BioAssay (NCI).

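In this assay, cells in 96-well plates receive the compound at five concentrations for 48 hours. Endpoints are linearly interpolated between the surrounding concentrations. TGI marks complete inhibition of growth.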 A value given as a limit tells only on which side of the number the result lay.

Holding throughout (experiment): NCI tumour cell line growth inhibition, 48 h
The test system of test [1] is SK-MEL-2 melanoma.
Test [2] relates to UACC-257 melanoma.
Test [3] has as its system 786-0 renal.
Test [4] concerns DU-145 prostate.
Test [5] relates to COLO 205 colon.
The subject of test [6] is LOX IMVI melanoma.
The subject of test [7] is HCC-2998 colon.
Test [8] has as its system SK-MEL-5 melanoma.
In test [9] the test system is MDA-MB-435.
For test [10], the system named is SF-539 CNS.

`O=C(O)C(F)(F)C(F)(F)C(F)(F)C(F)(F)C(=O)O`: the TGI in test [1], in test [2], in test [3], in [4], in test [5] and in test [6] was greater than 100 µM throughout. The TGI in [7], in [8] and in [9] was greater than 100 µM throughout.

As to `N#Cc1ccc(/C=N/NC(=O)CSCC(=O)N/N=C/c2ccc(C#N)cc2)cc1`, the TGI in test [10], in [1], in test [2], in [3], in test [4] and in test [5] was greater than 100 µM in each case. Besides, the TGI in test [7], in test [8] and in test [9] was greater than 100 µM throughout.

Regarding `Cc1ccc(S(=O)(=O)NC(=O)NC(Cc2ccccc2)C(=O)O)cc1` (centres undefined), the TGI in test [10], in test [1], in test [2], in test [3], in test [4] and in test [5] was greater than 100 µM each time. The TGI in [6] and in test [8] was greater than 100 µM throughout.

For `Fc1ccc(C2NC(=S)NC3=C2CCOc2c3ccc3ccccc23)cc1` (centres undefined), the TGI in [10] is greater than 100 µM; in test [1], greater than 100 µM; in test [2] it was greater than 100 µM; in test [3] it was greater than 100 µM; in test [4], greater than 100 µM; in [5], 30.3 µM. Also, the values for the TGI in test [7], in test [8] and in test [9] were 69.1 µM, 37.1 µM and 43.4 µM, respectively.

As to `O=c1c(/C=C/c2c(O)ccc3ccccc23)nnc2sc(-c3cccc([N+](=O)[O-])c3)nn12`, the TGI in test [1] was 70.1 µM; in test [2], 51 µM; in test [3], greater than 100 µM; in test [4] it was greater than 100 µM; in [5], greater than 100 µM; in test [6], greater than 100 µM. In test [9], the TGI was greater than 100 µM.

Turning to `O=C(O)CCC(C(=O)O)N1C(=O)c2ccccc2C1=O` (centres undefined), the TGI in test [1], in test [2], in [3], in [4], in [5] and in [6] was greater than 100 µM throughout. Moreover, the TGI in test [7], in test [8] and in test [9] was greater than 100 µM each time.

Regarding `C/C=C1/CN2[C@@H](C3=C[C@@H]4[C@@H]5N(C3=O)c3ccccc3[C@@]53CCN5C/C(=C/C)[C@@H]4C[C@H]53)C[C@@]34c5ccccc5N5C(=O)CC=C([C@H]1C[C@H]23)[C@H]54`, the TGI was determined as 2.87 µM in test [10]; 11.6 µM in [1]; 2.9 µM in test [2]; 7.8 µM in test [3]; 22.1 µM in test [4]; 7.54 µM in [5]. Further, the TGI was determined as 8.75 µM in test [7], 8.93 µM in test [8] and 14.1 µM in [9].

Take `COC(=O)c1c(C)ccc2c(O)c3c(cc12)C(=O)c1c2c(cc(O)c1C3=O)C1(C)OC(C)(O2)C(O)C(N(C)C)C1O` (centres undefined): the TGI was 12.8 µM in test [10]; 5.65 µM in test [1]; 3.09 µM in [2]; 1.95 µM in test [3]; 2.46 µM in test [4]; 7.56 µM in test [5]. For the same molecule, the figures for the TGI in test [7], in test [8] and in [9] were 1.39 µM, 17.3 µM and 2.97 µM, respectively.

As to `N#CC(c1nc2ccccc2s1)c1nc(Cl)ncc1Br` (centres undefined), the TGI in test [10] is 82 µM; in test [2] it was greater than 100 µM; in [3], greater than 100 µM; in test [4], greater than 100 µM; in test [5] it was greater than 100 µM; in test [6], greater than 100 µM. For the same molecule, the TGI in [8] was 43.5 µM; in test [9] it was greater than 100 µM.

Consider `CCOC(O)C(F)(F)F` (centres undefined), for which the TGI in [2], in test [4], in [5], in [6], in [7] and in test [8] was greater than 100 µM in each case. Moreover, the TGI in test [9] is greater than 100 µM.

In the case of `N#CCN1CCCCCc2ccccc21`, the TGI in test [10], in test [2], in test [3], in test [4], in test [5] and in test [7] was greater than 100 µM each time. In addition, the TGI in test [8] and in test [9] was greater than 100 µM throughout.

On to `C\C=C/C=C/C=C/C(=O)O`, for which the TGI in test [10], in test [1], in [2], in test [3], in test [5] and in test [6] was greater than 100 µM in each case. In addition, the TGI in test [7] and in test [8] was greater than 100 µM throughout.

`O=c1[nH]c(=S)c2cc3c(=S)[nH]c(=O)n(CCC(c4ccccc4)(c4ccccc4)c4ccccc4)c3nc2n1CCC(c1ccccc1)(c1ccccc1)c1ccccc1`: the TGI in test [1], in test [2], in test [3], in test [4], in test [5] and in [7] was greater than 100 µM throughout. Moreover, the TGI in test [8] and in [9] was greater than 100 µM throughout.

As for `COC(=O)C1=C(O)C(C(=O)OC)[C@]2(O)[C@H](C(=O)OC)[C@H]1C[C@@H](c1cccc(OC)c1)[C@H]2C(=O)OC` (some centres undefined), the TGI in [10] is greater than 100 µM; in test [1], 44.5 µM; in test [2], greater than 100 µM; in [3] it was 56.1 µM; in test [5] it was greater than 100 µM; in test [6], greater than 100 µM. Moreover, the TGI is 42.7 µM in [7], greater than 100 µM in test [8] and 55.2 µM in test [9].

Take `O=C(Nc1ccc(Cl)cc1)c1cccc([N+](=O)[O-])c1O`: the TGI is greater than 74.1 µM in [10]; 12.5 µM in test [1]; 8.13 µM in test [2]; greater than 56.7 µM in test [3]; 10.5 µM in test [5]; greater than 100 µM in test [6]. The TGI in test [7] amounted to 14.4 µM; in test [8], 4.86 µM.

For the molecule `CN1[C@@H]2CCCC[C@H]2N(C)P1(=O)C(O)/C=C/c1ccccc1` (some centres undefined), the TGI in [1], in test [2], in test [3], in [4], in test [5] and in test [6] was greater than 100 µM each time. For the same molecule, the TGI in [7], in test [8] and in test [9] was greater than 100 µM throughout.

Regarding `O=S(=O)(O)c1ccc2c(N=Nc3ccccc3)c(O)c(S(=O)(=O)O)cc2c1`, the TGI in test [10], in test [1], in [2], in test [3], in test [4] and in test [5] was greater than 100 µM throughout. The TGI in test [7], in [8] and in [9] was greater than 100 µM in each case.

For the molecule `Cc1c(NC(=S)N/N=C\C(=N/NC(=S)Nc2c(C)n(C)n(-c3ccccc3)c2=O)c2ccccc2)c(=O)n(-c2ccccc2)n1C`, the TGI in test [10], in test [1], in test [2], in test [3], in test [4] and in test [5] was greater than 100 µM in each case. The TGI in [7], in test [8] and in test [9] was greater than 100 µM each time.

For `N#CN=C1c2ccccc2C(=NC#N)c2cc(CO)ccc21`, the TGI in [10] is greater than 100 µM; in test [1] it was greater than 100 µM; in test [2] it was greater than 100 µM; in [3], greater than 100 µM; in test [4] it was 69 µM; in test [6] it was greater than 100 µM. Moreover, the TGI is greater than 100 µM in test [8] and 80.3 µM in [9].

With `Cc1ccc2ccc(=O)oc2c1`, the TGI in [10], in [1], in test [2], in [3], in test [4] and in test [5] was greater than 100 µM in each case. Moreover, the TGI in test [6], in test [8] and in test [9] was greater than 100 µM each time.

As to `NC(CCl)=NC1CN2CCC1CC2` (centres undefined), the TGI in test [10] is greater than 100 µM; in [1], greater than 100 µM; in test [2], greater than 100 µM; in test [3] it was greater than 100 µM; in test [4], greater than 100 µM; in test [5], 73.8 µM. For the same molecule, the TGI in [6], in test [8] and in [9] was greater than 100 µM each time.

Consider `CC(=O)Nc1ccc(N2C(=O)CS(=O)(=O)C2c2cccc(Oc3ccccc3)c2)cc1` (centres undefined), for which the TGI in test [10] was 36.4 µM; in test [1], 37.3 µM; in test [2], 33.8 µM; in test [3] it was 35.7 µM; in test [4] it was greater than 100 µM; in test [5], 35.7 µM. Besides, the TGI stood at 35.5 µM in [6], 28.7 µM in [8] and 48.5 µM in [9].

Take `OCc1c2c(cc3c1CC1(C3)Cc3cc4c(c(CO)c3C1)CCC4)CCC2`: the TGI in [10] is 32.1 µM; in [1], 36.7 µM; in test [2] it was 23.8 µM; in test [3] it was 27.7 µM; in [5], 42.4 µM; in [6], 28.7 µM. The TGI was 35 µM in [7], 17.9 µM in [8] and 36.9 µM in [9].

As for `C=C(C)[C@@H]1CC[C@]2(CO)CC[C@]3(C)[C@H](CC[C@@H]4[C@@]5(C)CC[C@H](O)C(C)(C)[C@@H]5CC[C@]43C)[C@@H]12`, the TGI in test [10] was 33.8 µM; in test [2], 54.9 µM; in test [3], 27.1 µM; in test [4], greater than 100 µM; in test [6], 28.4 µM; in test [8], 57.9 µM. This molecule also registered a TGI in [9] of 57.1 µM.

Turning to `Cc1ccc(C(=O)Cc2nc3ncccc3[nH]c2=O)cc1`, the TGI in [10] is 74.9 µM; in test [1], greater than 100 µM; in test [2] it was greater than 100 µM; in test [3], 45.3 µM; in test [4], greater than 100 µM; in [5], greater than 100 µM. The TGI in test [7] was greater than 100 µM; in test [8], greater than 100 µM; in test [9], 39.8 µM.

Regarding `COc1cc2c(cc1OC)C1=Cc3ccc(OC)c(OC)c3C(C#N)N1CC2` (centres undefined), the TGI in test [10] was greater than 100 µM; in test [1] it was 43.4 µM; in [2] it was 47.4 µM; in [3], greater than 100 µM; in test [4] it was greater than 100 µM; in test [5], 43.8 µM. Also, the TGI in test [7] was determined as 51.1 µM; in [8], 38.6 µM; in [9], 82.3 µM.

Consider `O=C(Nc1ccccc1)c1cc(S(=O)(=O)Nc2n[nH]c(=O)[nH]2)c(SSc2cc(Cl)c(C(=O)Nc3ccccc3)cc2S(=O)(=O)Nc2n[nH]c(=O)[nH]2)cc1Cl`, for which the TGI in test [1], in test [2], in [3], in test [5], in test [6] and in test [7] was greater than 100 µM in each case. The TGI in [8] and in test [9] was greater than 100 µM in each case.

In the case of `Cc1ccc(C2(N3CCCC3)OC(C)(C)c3cccc4cccc2c34)cc1` (centres undefined), the TGI in [10] came to 32.1 µM; in [1], 28.2 µM; in test [2], 31 µM; in [3], 37.6 µM; in [4] it was 32.8 µM; in test [5] it was 30.3 µM. The TGI in [6] was 29.3 µM; in [8] it was 28.2 µM; in [9], 28 µM.

As for `CC(C)=NNc1cnnc2ccc([N+](=O)[O-])cc12`, the TGI in test [10], in test [1], in test [2], in [3], in test [4] and in test [5] was greater than 100 µM each time. Moreover, the TGI in test [8] and in [9] was greater than 100 µM each time.

As for `CC1(C)C2CCC1(C)C(N/C(=C(/C(Cl)=C(Cl)Cl)[N+](=O)[O-])n1nnc3ccccc31)C2` (centres undefined), the TGI in test [10] is greater than 100 µM; in [1], 61 µM; in [2], greater than 100 µM; in test [3], greater than 100 µM; in [5], 34.4 µM; in [6] it was greater than 100 µM. The TGI in [7] was greater than 100 µM; in test [9] it was 46.2 µM.
